Values quoted from earlier work as cited in US5932245A, “Gelatin or collagen hydrolysate containing drug formulation that provides for immediate release of nanoparticle drug compounds” (priority 1991, dated 1999).
Values after ≈ are worked out from the molar mass of the structure shown. Read-outs that look alike come from different tables or passages of the source.

Columns and labels:
[1] = aqueous medium
[2] = in vivo
[3] = in contrast to indometacin

COc1ccc(Cl)cc1C(=O)NCCc1ccc(S(=O)(=O)NC(=O)NC2CCCCC2)cc1 [glibenclamide, 1-{4-[2-(5-chloro-2-methoxybenzamido)ethyl]phenylsulfonyl}-3-cyclohexylurea]
solubility ([1]; pH 1.3, room temperature): 1 µg/mL (≈ 2.02 µM)
solubility ([1]; pH 6.0, room temperature): 3 µg/mL (≈ 6.07 µM)
solubility ([1]; pH 7.8, room temperature): about 30 mg/l

COc1ccc2c(c1)c(CC(=O)O)c(C)n2C(=O)c1ccc(Cl)cc1 [indometacin, (1-(4-chlorobenzoyl)-5-methoxy-2-methyl-3-indolyl)acetic acid]
water solubility (in words): virtually water-insoluble

COc1ccc2c(c1)c(CC(=O)OCC(=O)O)c(C)n2C(=O)c1ccc(Cl)cc1 [acemetacin, carboxymethyl(1-(4-chlorobenzoyl)-5-methoxy-2-methyl-3-indolyl)acetate]
metabolism [2]: for the most part metabolized to indometacin
ulcerogenic properties [3]: weakly pronounced ulcerogenic properties
